Measurements from US4791118A, “Quinolonecarboxylic acid derivatives and their preparation” (Kyorin Pharmaceutical Co., Ltd., priority 1985, dated 1988).
≈ marks a conversion by molar mass, not a printed value.

Legend:
S. pyogenes 3107 = test: MIC, clinical isolates; assay type: cell-based; details: Streptococcus pyogenes; clinical isolate S. pyogenes 3107; 10^6 cells/ml
S. marcescens GN 7577 = test: MIC, aerobic bacteria; assay type: cell-based; details: Serratia marcescens, GN7577, Gram -, 10^6 cells/ml
[1] = test system: Staphylococcus aureus 209 P; test: microbe, parasite or virus in culture
E. lentum GAI 5242 = test: microbe, parasite or virus in culture; details: Eggerthella lenta, GAI5242
S. aureus Smith = test: microbe, parasite or virus in culture; details: Staphylococcus aureus
S. pneumoniae 15 = test: MIC, clinical isolates; assay type: cell-based; details: Streptococcus pneumoniae; clinical isolate S. pneumoniae 15; 10^6 cells/ml
S. pyogenes 3102 = test: MIC, clinical isolates; assay type: cell-based; details: Streptococcus pyogenes; clinical isolate S. pyogenes 3102; 10^6 cells/ml
S. pneumoniae 2950 = test: MIC, clinical isolates; assay type: cell-based; details: Streptococcus pneumoniae; clinical isolate S. pneumoniae 2950; 10^6 cells/ml
[2] = test system: Alcaligenes faecalis 0114002; test: MIC, aerobic bacteria
[3] = test system: B. melaninogenicus GAI 0410; test: MIC, anaerobic bacteria; details: Prevotella intermedia, GAI0410
E. coli ML 4707 = test: MIC, aerobic bacteria; assay type: cell-based; details: Escherichia coli, ML4707, Gram -, 10^6 cells/ml
S. pneumoniae 2054 = test: MIC, clinical isolates; assay type: cell-based; details: Streptococcus pneumoniae; clinical isolate S. pneumoniae 2054; 10^6 cells/ml
K. pneumoniae 1-220S = test: microbe, parasite or virus in culture; details: Klebsiella pneumoniae, 1220S
F. varium KYA 8501 = test: microbe, parasite or virus in culture; details: Fusobacterium varium, KYA8501
B. fragilis 0558 = test: MIC, anaerobic bacteria; assay type: cell-based; details: Bacteroides fragilis, Gram -, 10^6 cells/ml
From the text: (§1) | Organism (10^6 cells/ml)

B. vulgatus KYA 29327 = test: MIC, anaerobic bacteria; assay type: cell-based; details: Phocaeicola vulgatus, KYA29327, Gram -, 10^6 cells/ml
From the text: as §1

[4] = test system: Clostridium difficile I-E; test: MIC, anaerobic bacteria; assay type: cell-based; details: Clostridioides difficile, Gram +, 10^6 cells/ml
From the text: as §1

[5] = test system: Veillonella parvula KYA 10790; test: MIC, anaerobic bacteria; assay type: cell-based; details: KYA10790, Gram -, 10^6 cells/ml
From the text: as §1

[6] = test system: Fusobacterium mortiferum 4249; test: MIC, anaerobic bacteria; assay type: cell-based; details: Gram -, 10^6 cells/ml
From the text: as §1

Pst. micros UPI 5464-1 = test: MIC, anaerobic bacteria; assay type: cell-based; details: Parvimonas micra, UPI54641, Gram +, 10^6 cells/ml
From the text: as §1

B. distasonis 8503 = test: MIC, anaerobic bacteria; assay type: cell-based; details: Parabacteroides distasonis, Gram -, 10^6 cells/ml
From the text: as §1

F. nucleatum = test: MIC, anaerobic bacteria; assay type: cell-based; details: Fusobacterium nucleatum, Gram -, 10^6 cells/ml
From the text: as §1

B. fragilis 25285 = test: MIC, anaerobic bacteria; assay type: cell-based; details: Bacteroides fragilis, Gram -, 10^6 cells/ml
From the text: as §1

[7] = test system: Peptococcus magnus KY 017; test: MIC, anaerobic bacteria; assay type: cell-based; details: Finegoldia magna, KY017, Gram +, 10^6 cells/ml
From the text: as §1

[8] = test system: Bacteroides fragilis GM 7000; test: MIC, anaerobic bacteria; assay type: cell-based; details: GM7000, Gram -, 10^6 cells/ml
From the text: as §1

S. pneumoniae 17 = test: MIC, clinical isolates; assay type: cell-based; details: Streptococcus pneumoniae; clinical isolate S. pneumoniae 17; 10^6 cells/ml
E. faecalis 214 = test: MIC, clinical isolates; assay type: cell-based; details: Enterococcus faecalis; clinical isolate E. faecalis 214; 10^6 cells/ml
S. agalactiae 4470 = test: MIC, clinical isolates; assay type: cell-based; details: Streptococcus agalactiae; clinical isolate S. agalactiae 4470; 10^6 cells/ml
S. pyogenes IID 692 = test: MIC, aerobic bacteria; assay type: cell-based; details: Streptococcus pyogenes, IID692, Gram +, 10^6 cells/ml
[9] = test system: Pseudomonas aeruginosa V-1; test: MIC, aerobic bacteria; details: V1
P. aeruginosa IID 1210 = test: MIC, aerobic bacteria; assay type: cell-based; details: Pseudomonas aeruginosa, IID1210, Gram -, 10^6 cells/ml
S. pyogenes 3131 = test: MIC, clinical isolates; assay type: cell-based; details: Streptococcus pyogenes; clinical isolate S. pyogenes 3131; 10^6 cells/ml
E. faecalis IID 682 = test: MIC, aerobic bacteria; assay type: cell-based; details: Enterococcus faecalis, IID682, Gram +, 10^6 cells/ml
S. pyogenes 3130 = test: MIC, clinical isolates; assay type: cell-based; details: Streptococcus pyogenes; clinical isolate S. pyogenes 3130; 10^6 cells/ml
[10] = test system: B. thetaiotaomicron (0661); test: MIC, anaerobic bacteria; assay type: cell-based; details: Bacteroides thetaiotaomicron, Gram -, 10^6 cells/ml
P. maltophilia GIFU 2491 = test: MIC, aerobic bacteria; assay type: cell-based; details: Stenotrophomonas maltophilia, GIFU2491, Gram -, 10^6 cells/ml
C. ramosum = test: MIC, anaerobic bacteria; details: Thomasclavelia ramosa

Compound | MIC (S. pyogenes 3107) [µg/mL] | MIC (S. marcescens GN 7577) [µg/mL] | MIC [1] [µg/mL] | MIC (E. lentum GAI 5242) [µg/mL] | MIC (S. aureus Smith) [µg/mL] | MIC (S. pneumoniae 15) [µg/mL] | MIC (S. pyogenes 3102) [µg/mL] | MIC (S. pneumoniae 2950) [µg/mL] | MIC [2] [µg/mL] | MIC [3] [µg/mL] | MIC (E. coli ML 4707) [µg/mL] | MIC (S. pneumoniae 2054) [µg/mL] | MIC (K. pneumoniae 1-220S) [µg/mL] | MIC (F. varium KYA 8501) [µg/mL] | MIC (B. fragilis 0558) [µg/mL] | MIC (B. vulgatus KYA 29327) [µg/mL] | MIC [4] [µg/mL] | MIC [5] [µg/mL] | MIC [6] [µg/mL] | MIC (Pst. micros UPI 5464-1) [µg/mL] | also measured
O=C(O)c1cn(C2CC2)c2c(Cl)c(N3CCC(CNCCF)C3)c(F)cc2c1=O (centres unmarked) [Exp. 1, 8-Chloro-1-cyclopropyl-6-fluoro-7-[3-(2-fluoroethyl)aminomethyl-1-pyrrolidinyl]-1,4-dihydro-4-oxo-3-quinolinecarboxylic acid] | 0.025 (≈ 0.0587 µM) | 1.56 (≈ 3.66 µM) | ≤ 0.0063 | 0.1 (≈ 0.235 µM) | ≤ 0.0063 | 0.025 (≈ 0.0587 µM) | 0.025 (≈ 0.0587 µM) | 0.025 (≈ 0.0587 µM) | 0.39 (≈ 0.916 µM) | 0.1 (≈ 0.235 µM) | 0.0125 (≈ 0.0294 µM) | 0.025 (≈ 0.0587 µM) | 0.1 (≈ 0.235 µM) | 0.39 (≈ 0.916 µM) | ≤ 0.05 | ≤ 0.05 | 0.2 (≈ 0.47 µM) | 0.1 (≈ 0.235 µM) | ≤ 0.05 | 0.1 (≈ 0.235 µM) | MIC (B. distasonis 8503): 0.2 µg/mL (≈ 0.47 µM); MIC (F. nucleatum): ≤ 0.05 µg/mL; MIC (B. fragilis 25285): ≤ 0.05 µg/mL; MIC [7]: ≤ 0.05 µg/mL; MIC [8]: ≤ 0.05 µg/mL; MIC (S. pneumoniae 17): 0.025 µg/mL (≈ 0.0587 µM); MIC (E. faecalis 214): 0.05 µg/mL (≈ 0.117 µM); MIC (S. agalactiae 4470): 0.025 µg/mL (≈ 0.0587 µM); MIC (S. pyogenes IID 692): 0.05 µg/mL (≈ 0.117 µM); MIC [9]: 0.39 µg/mL (≈ 0.916 µM); MIC (P. aeruginosa IID 1210): 1.56 µg/mL (≈ 3.66 µM); MIC (S. pyogenes 3131): 0.025 µg/mL (≈ 0.0587 µM); MIC (E. faecalis IID 682): 0.05 µg/mL (≈ 0.117 µM); MIC (S. pyogenes 3130): 0.025 µg/mL (≈ 0.0587 µM); MIC [10]: 0.2 µg/mL (≈ 0.47 µM); MIC (P. maltophilia GIFU 2491): 0.2 µg/mL (≈ 0.47 µM); MIC (C. ramosum): 0.1 µg/mL (≈ 0.235 µM)
O=C(O)c1cn(C2CC2)c2c(F)c(N3CCC(CNCCF)C3)c(F)cc2c1=O (centres unmarked) [Exp. 2, 1-Cyclopropyl-7-[3-(2-fluoroethyl)aminomethyl-1-pyrrolidinyl]-6,8-difluoro-1,4-dihydro-4-oxo-3-quinolinecarboxylic acid] | 0.05 (≈ 0.122 µM) | 1.56 (≈ 3.81 µM) | 0.0125 (≈ 0.0305 µM) | 0.39 (≈ 0.953 µM) | 0.0125 (≈ 0.0305 µM) | 0.05 (≈ 0.122 µM) | 0.05 (≈ 0.122 µM) | 0.05 (≈ 0.122 µM) | 0.39 (≈ 0.953 µM) | 0.39 (≈ 0.953 µM) | 0.025 (≈ 0.0611 µM) | 0.05 (≈ 0.122 µM) | 0.1 (≈ 0.244 µM) | 0.78 (≈ 1.91 µM) | 0.39 (≈ 0.953 µM) | 0.39 (≈ 0.953 µM) | 0.78 (≈ 1.91 µM) | 0.2 (≈ 0.489 µM) | 0.2 (≈ 0.489 µM) | 0.2 (≈ 0.489 µM) | MIC (B. distasonis 8503): 0.78 µg/mL (≈ 1.91 µM); MIC (F. nucleatum): 0.2 µg/mL (≈ 0.489 µM); MIC (B. fragilis 25285): 0.39 µg/mL (≈ 0.953 µM); MIC [7]: ≤ 0.05 µg/mL; MIC [8]: 0.39 µg/mL (≈ 0.953 µM); MIC (S. pneumoniae 17): 0.05 µg/mL (≈ 0.122 µM); MIC (E. faecalis 214): 0.05 µg/mL (≈ 0.122 µM); MIC (S. agalactiae 4470): 0.05 µg/mL (≈ 0.122 µM); MIC (S. pyogenes IID 692): 0.1 µg/mL (≈ 0.244 µM); MIC [9]: 0.39 µg/mL (≈ 0.953 µM); MIC (P. aeruginosa IID 1210): 1.56 µg/mL (≈ 3.81 µM); MIC (S. pyogenes 3131): 0.05 µg/mL (≈ 0.122 µM); MIC (E. faecalis IID 682): 0.1 µg/mL (≈ 0.244 µM); MIC (S. pyogenes 3130): 0.05 µg/mL (≈ 0.122 µM); MIC [10]: 0.78 µg/mL (≈ 1.91 µM); MIC (P. maltophilia GIFU 2491): 0.2 µg/mL (≈ 0.489 µM); MIC (C. ramosum): 0.39 µg/mL (≈ 0.953 µM)
